Experimental data from patent US10894784B2, “Heteroarylbenzimidazole compounds” (BAYER PHARMA AKTIENGESELLSCHAFT, priority 2015, dated 2021).

Target: TBK1 (Homo sapiens (Human), UniProt Q9UHD2)
Assay: TBK1 low ATP kinase assay (in vitro assay 1)
Format: biochemical
Conditions: TBK1 low ATP kinase assay IC50, in vitro assay 1

TBK1, sequence (Q9UHD2 whole entry): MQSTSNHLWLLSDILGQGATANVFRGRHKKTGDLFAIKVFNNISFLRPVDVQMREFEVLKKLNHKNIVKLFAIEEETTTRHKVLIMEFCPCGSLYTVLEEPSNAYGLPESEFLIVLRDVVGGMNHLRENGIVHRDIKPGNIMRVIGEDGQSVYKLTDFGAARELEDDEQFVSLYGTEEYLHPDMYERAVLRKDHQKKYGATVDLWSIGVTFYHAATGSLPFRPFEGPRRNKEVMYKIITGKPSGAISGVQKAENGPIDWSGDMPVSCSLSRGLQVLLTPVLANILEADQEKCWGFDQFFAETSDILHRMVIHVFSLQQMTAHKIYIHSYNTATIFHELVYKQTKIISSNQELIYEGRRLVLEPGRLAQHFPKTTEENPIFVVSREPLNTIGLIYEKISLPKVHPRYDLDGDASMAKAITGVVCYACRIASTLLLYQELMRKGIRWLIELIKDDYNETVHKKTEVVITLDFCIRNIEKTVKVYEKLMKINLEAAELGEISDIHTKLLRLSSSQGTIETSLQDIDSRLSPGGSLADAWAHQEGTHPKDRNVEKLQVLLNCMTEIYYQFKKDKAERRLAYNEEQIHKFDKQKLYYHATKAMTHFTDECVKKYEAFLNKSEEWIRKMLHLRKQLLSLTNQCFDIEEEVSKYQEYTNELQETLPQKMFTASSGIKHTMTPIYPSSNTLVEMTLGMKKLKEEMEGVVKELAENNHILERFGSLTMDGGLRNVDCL

Compared with `Cc1noc(-c2ccc3nc(Nc4cc(C(C)N5CCN(C(=O)CC(F)(F)F)CC5)ccn4)[nH]c3c2)n1` (racemic) [Example 16.05.02, (rac)-3,3,3-trifluoro-1-{4-[1-(2-{[6-(3-methyl-1,2,4-oxadiazol-5-yl)-1H-benzimidazol-2-yl]amino}pyridin-4-yl)ethyl]piperazin-1-yl}propan-1-one], `Cc1cc(-c2ccc3nc(Nc4cc(C(C)N5CCN(C(=O)CC(F)(F)F)CC5)ccn4)[nH]c3c2)ncn1` (racemic) [Example 30.02.01, (rac)-3,3,3-trifluoro-1-{4-[1-(2-{[6-(6-methylpyrimidin-4-yl)-1H-benzimidazol-2-yl]amino}pyridin-4-yl)ethyl]piperazin-1-yl}propan-1-one] is 7.4-fold lower in IC50: 33 nM for the first, 4.46 nM for the second.

In the case of `Cc1noc(-c2ccc3nc(Nc4cc(C(C)N5CCN(C(=O)CC(F)(F)F)CC5)ccn4)[nH]c3c2)n1` (single isomer, unassigned) [Example 16.06.02.A, 3,3,3-trifluoro-1-{4-[(1R or 1S)-1-(2-{[6-(3-methyl-1,2,4-oxadiazol-5-yl)-1H-benzimidazol-2-yl]amino}pyridin-4-yl)ethyl]piperazin-1-yl}propan-1-one], the IC50 is reported as 105 nM.

Same assay, conditions: in vitro assay 1, read-out: TBK1 low ATP kinase assay IC50

First: 1-(4-{(1R or 1S)-1-[2-({6-[1-(cyclopentylmethyl)-1H-pyrazol-4-yl]-1H-benzimidazol-2-yl}amino)pyridin-4-yl]ethyl}piperazin-1-yl)-3,3,3-trifluoropropan-1-one [Example 71.02]
Second: 3,3,3-trifluoro-1-{4-[(1R or 1S)-1-{2-[(6-{1-[(1-methylcyclopropyl)methyl]-1H-pyrazol-4-yl}-1H-benzimidazol-2-yl)amino]pyridin-4-yl}ethyl]piperazin-1-yl}propan-1-one [Example 68.02]
The IC50 of the first is 4.7-fold higher: 7.1 nM for the first, 1.5 nM for the second. The second is the more potent here.

Going from `COc1cnccc1-c1ccc2nc(Nc3cc(CN4CCN(C(=O)C5CC5(F)F)CC4)ccn3)[nH]c2c1` (racemic) [Example 04.08, ((1RS)-2,2-difluorocyclopropyl){4-[(2-{[6-(3-methoxypyridin-4-yl)-1H-benzimidazol-2-yl]amino}pyridin-4-yl)methyl]piperazin-1-yl}methanone] to `Cc1noc(-c2ccc3nc(Nc4cc(C(C)N5CCN(C(=O)OC(C)(C)C)CC5)ccn4)[nH]c3c2)n1` (racemic) [Example 16.05.01, (rac)-tert-butyl 4-[1-(2-{[6-(3-methyl-1,2,4-oxadiazol-5-yl)-1H-benzimidazol-2-yl]amino}pyridin-4-yl)ethyl]piperazine-1-carboxylate], the IC50 rises from 13.8 nM to 82.5 nM (6-fold). The first is the more potent here.

Compared with `Cc1noc(-c2ccc3nc(Nc4cc(C(C)N5CCN(C(=O)C6CC6)CC5)ccn4)[nH]c3c2)n1` (racemic) [Example 16.05.03, (rac)-cyclopropyl{4-[1-(2-{[6-(3-methyl-1,2,4-oxadiazol-5-yl)-1H-benzimidazol-2-yl]amino}pyridin-4-yl)ethyl]piperazin-1-yl}methanone], `CC(c1ccnc(Nc2nc3ccc(-c4ccncn4)cc3[nH]2)c1)N1CCN(C(=O)C2CCC2)CC1` (racemic) [Example 23.04.01, (rac)-cyclobutyl{4-[1-(2-{[6-(pyrimidin-4-yl)-1H-benzimidazol-2-yl]amino}pyridin-4-yl)ethyl]piperazin-1-yl}methanone] is 13-fold lower in IC50: 43.1 nM for the first, 3.44 nM for the second.

`CC(c1ccnc(Nc2nc3ccc(-c4ccncn4)cc3[nH]2)c1)N1CCN(C(=O)C2CC2)CC1` (racemic) [Example 23.04.02, (rac)-cyclopropyl{4-[1-(2-{[6-(pyrimidin-4-yl)-1H-benzimidazol-2-yl]amino}pyridin-4-yl)ethyl]piperazin-1-yl}methanone] and `CC(c1ccnc(Nc2nc3ccc(-c4ccncn4)cc3[nH]2)c1)N1CCN(C(=O)CC(F)(F)F)CC1` (racemic) [Example 23.04.03, (rac)-3,3,3-trifluoro-1-{4-[1-(2-{[6-(pyrimidin-4-yl)-1H-benzimidazol-2-yl]amino}pyridin-4-yl)ethyl]piperazin-1-yl}propan-1-one] are within 1.5-fold of each other in IC50: 2.42 nM for the first, 2.47 nM for the second.

Compared with `Cc1nccc(-c2ccc3nc(Nc4cc(C(C)N5CCN(C(=O)C6CC6)CC5)ccn4)[nH]c3c2)n1` (racemic) [Example 24.04.01, (rac)-cyclopropyl{4-[1-(2-{[6-(2-methylpyrimidin-4-yl)-1H-benzimidazol-2-yl]amino}pyridin-4-yl)ethyl]piperazin-1-yl}methanone], `Cc1nccc(-c2ccc3nc(Nc4cc(C(C)N5CCN(C(=O)C6CCC6)CC5)ccn4)[nH]c3c2)n1` (racemic) [Example 24.04.02, (rac)-cyclobutyl{4-[1-(2-{[6-(2-methylpyrimidin-4-yl)-1H-benzimidazol-2-yl]amino}pyridin-4-yl)ethyl]piperazin-1-yl}methanone] is 1.8-fold higher in IC50: 9.19 nM for the first, 16.1 nM for the second.

`Cc1nccc(-c2ccc3nc(Nc4cc(C(C)N5CCN(C(=O)CC(F)(F)F)CC5)ccn4)[nH]c3c2)n1` (racemic) [Example 24.04.03, (rac)-3,3,3-trifluoro-1-{4-[1-(2-{[6-(2-methylpyrimidin-4-yl)-1H-benzimidazol-2-yl]amino}pyridin-4-yl)ethyl]piperazin-1-yl}propan-1-one] and `Cc1nccc(-c2ccc3nc(Nc4cc(C(C)N5CCN(C(=O)CC6CC6)CC5)ccn4)[nH]c3c2)n1` (racemic) [Example 24.04.04, (rac)-2-cyclopropyl-1-{4-[1-(2-{[6-(2-methylpyrimidin-4-yl)-1H-benzimidazol-2-yl]amino}pyridin-4-yl)ethyl]piperazin-1-yl}ethanone] are within 1.5-fold of each other in IC50: 12.4 nM for the first, 14.4 nM for the second.

`CCOc1nccc(-c2ccc3nc(Nc4cc(C(C)N5CCN(C(=O)CC(F)(F)F)CC5)ccn4)[nH]c3c2)n1` (racemic) [Example 26.02.01, (rac)-1-{4-[1-(2-{[6-(2-ethoxypyrimidin-4-yl)-1H-benzimidazol-2-yl]amino}pyridin-4-yl)ethyl]piperazin-1-yl}-3,3,3-trifluoropropan-1-one] and `CC(c1ccnc(Nc2nc3ccc(-c4cc(C(F)(F)F)ncn4)cc3[nH]2)c1)N1CCN(C(=O)C2CC2)CC1` (racemic) [Example 29.01.02, (rac)-cyclopropyl(4-{1-[2-({6-[6-(trifluoromethyl)pyrimidin-4-yl]-1H-benzimidazol-2-yl}amino)pyridin-4-yl]ethyl}piperazin-1-yl)methanone] are within 1.5-fold of each other in IC50: 4.68 nM for the first, 3.47 nM for the second.

Compared with `Cc1cc(-c2ccc3nc(Nc4cc(C(C)N5CCN(C(=O)C6CCC6)CC5)ccn4)[nH]c3c2)ncn1` (racemic) [Example 30.02.02, (rac)-cyclobutyl{4-[1-(2-{[6-(6-methylpyrimidin-4-yl)-1H-benzimidazol-2-yl]amino}pyridin-4-yl)ethyl]piperazin-1-yl}methanone], `Cc1cc(-c2ccc3nc(Nc4cc(C(C)N5CCN(C(=O)C6CC6)CC5)ccn4)[nH]c3c2)ncn1` (racemic) [Example 30.02.03, (rac)-cyclopropyl{4-[1-(2-{[6-(6-methylpyrimidin-4-yl)-1H-benzimidazol-2-yl]amino}pyridin-4-yl)ethyl]piperazin-1-yl}methanone] is 2.1-fold lower in IC50: 7.86 nM for the first, 3.73 nM for the second.

`Cc1cc(-c2ccc3nc(Nc4cc(C(C)N5CCN(C(=O)CC6CC6)CC5)ccn4)[nH]c3c2)ncn1` (racemic) [Example 30.02.04, (rac)-2-cyclopropyl-1-{4-[1-(2-{[6-(6-methylpyrimidin-4-yl)-1H-benzimidazol-2-yl]amino}pyridin-4-yl)ethyl]piperazin-1-yl}ethanone] and `COc1cc(-c2ccc3nc(Nc4cc(C(C)N5CCN(C(=O)CC(F)(F)F)CC5)ccn4)[nH]c3c2)ncn1` (racemic) [Example 34.02.01, (rac)-3,3,3-trifluoro-1-{4-[1-(2-{[6-(6-methoxypyrimidin-4-yl)-1H-benzimidazol-2-yl]amino}pyridin-4-yl)ethyl]piperazin-1-yl}propan-1-one] are within 1.5-fold of each other in IC50: 9.35 nM for the first, 12.4 nM for the second.

`COc1cc(-c2ccc3nc(Nc4cc(C(C)N5CCN(C(=O)C6CC6)CC5)ccn4)[nH]c3c2)ncn1` (racemic) [Example 34.02.02, (rac)-cyclopropyl{4-[1-(2-{[6-(6-methoxypyrimidin-4-yl)-1H-benzimidazol-2-yl]amino}pyridin-4-yl)ethyl]piperazin-1-yl}methanone] and `COc1cncnc1-c1ccc2nc(Nc3cc(C(C)N4CCN(C(=O)CC(F)(F)F)CC4)ccn3)[nH]c2c1` (racemic) [Example 35.02.01, (rac)-3,3,3-trifluoro-1-{4-[1-(2-{[6-(5-methoxypyrimidin-4-yl)-1H-benzimidazol-2-yl]amino}pyridin-4-yl)ethyl]piperazin-1-yl}propan-1-one] are within 1.5-fold of each other in IC50: 9.1 nM for the first, 7.67 nM for the second.

Compared with `COc1cncnc1-c1ccc2nc(Nc3cc(C(C)N4CCN(C(=O)CC5CC5)CC4)ccn3)[nH]c2c1` (racemic) [Example 35.02.02, (rac)-2-cyclopropyl-1-{4-[1-(2-{[6-(5-methoxypyrimidin-4-yl)-1H-benzimidazol-2-yl]amino}pyridin-4-yl)ethyl]piperazin-1-yl}ethanone], `COc1cncnc1-c1ccc2nc(Nc3cc(C(C)N4CCN(C(=O)C5CC5)CC4)ccn3)[nH]c2c1` (racemic) [Example 35.02.03, (rac)-cyclopropyl{4-[1-(2-{[6-(5-methoxypyrimidin-4-yl)-1H-benzimidazol-2-yl]amino}pyridin-4-yl)ethyl]piperazin-1-yl}methanone] is 1.8-fold lower in IC50: 11.5 nM for the first, 6.29 nM for the second. The second is the more potent here.

Compared with `COc1cncnc1-c1ccc2nc(Nc3cc(C(C)N4CCN(C(=O)C5CCC5)CC4)ccn3)[nH]c2c1` (racemic) [Example 35.02.04, (rac)-cyclobutyl{4-[1-(2-{[6-(5-methoxypyrimidin-4-yl)-1H-benzimidazol-2-yl]amino}pyridin-4-yl)ethyl]piperazin-1-yl}methanone], `CC(O)c1cc(-c2ccc3nc(Nc4cc(CN5CCN(C(=O)OC(C)(C)C)CC5)ccn4)[nH]c3c2)ncn1` (racemic) [Example 97.01, (rac)-tert-butyl 4-({2-[(6-{6-[1-hydroxyethyl]pyrimidin-4-yl}-1H-benzimidazol-2-yl)amino]pyridin-4-yl}methyl)piperazine-1-carboxylate] is 2-fold higher in IC50: 10.4 nM for the first, 21 nM for the second. The first is the more potent here.

Work on `CC(O)c1cc(-c2ccc3nc(Nc4cc(CN5CCN(C(=O)CC(F)(F)F)CC5)ccn4)[nH]c3c2)ncn1` (racemic) [Example 97.02, (rac)-3,3,3-trifluoro-1-[4-({2-[(6-{6-[1-hydroxyethyl]pyrimidin-4-yl}-1H-benzimidazol-2-yl)amino]pyridin-4-yl}methyl)piperazin-1-yl]propan-1-one] yielded an IC50 of 18 nM.
